In one data set the test system is C9ORF72 FTD iNs. In words: Survival of C9ORF72 FTD iNs. It is filed as cell-based, human. Conditions: Apilimod+GW4869 (exocytosis blocker). The source says:
(A) Survival of C9ORF72 iNs with DMSO or apilimod. Log-rank test, 100 iNs per group. […] Log-rank test, 100 iNs per group. […] Mean+/−s.e.m. Kruskal-Wallis Test.
(A, B) Survival of C9-FTD iNs treated with DMSO and Apilimod (A) or Apilimod+GW4869 (exocytosis blocker) (B). Log-rank test. 100 iNs per group. iNs quantified from 3 independent replicates per group.
Mutations in MAPT cause FTD with tau aggregates. To determine if iNs from FTD patients display neurodegenerative phenotypes, an established method to generate cortical neurons from iPSCs by forced expression of NGN2 was used. 3 FTD patient iPSC lines harboring a MAPTV337M mutation and their CRISPR-edited isogenic controls from a published cell bank were utilized. Neurons from MAPT-mutant iPSCs display increased phosphorylated and oligomeric tau, similar to post-mortem patient tissue (FIG. 18A). […] Thus, MAPT iNs display key features of FTD with tau pathology.
Thus, C9ORF72 iNs provide a robust model of FTD.
(§1) PIKFYVE inhibition rescues neurodegeneration through secretory autophagy.

Another data set concerns C9-FTD iNs. The data set can be described thus: Exosome secretion from iNs. It counts as cell-based, human. As to conditions: apilimod+GW4869.
Excerpt: (A) […] of exosomes from apilimod-treated C9-FTD iNs. (B) Western blot of TSG101, TDP-43, and Neurofilament heavy chain levels in the exosome fraction secreted from control or C9-FTD iNs upon apilimod treatment. (C,D) Quantification of the exosome marker TSG101 (C) or TDP-43 (D) in the exosome fraction of control and C9-FTD iNs treated with DMSO, apilimod, or apilimod+GW4869. Kruskal-Wallis test for B, C. N=3 biological replicates per condition, one line per genotype. (E) Number of poly(GR)-GFP+ exosomes secreted from iNs expressing exogenous poly(GR)-GFP upon DMSO or apilimod treatment. N=4 biological replicates. Exosomes were labeled with CFSE-red dye to enable detection by FACS. Unpaired t-test.
To test this, exosome release from iNs upon PIKFYVE inhibition was examined. […] Thus, PIKFYVE inhibition induces the secretion of TDP-43 and C9ORF72 DPRs from iNs
as §1

In another data set the test system is TARDBP mice. The data set can be described thus: Motor deficits in TDP-43 (TARDBP) mice. It is filed as in vivo.
Another data set concerns C9-ALS/FTD iMNs. The data set can be described thus: Exosome secretion from iMNs. It counts as cell-based, human. Conditions: apilimod+GW4869. The source says: (A) Western blot of TSG101, TDP-43, and Neurofilament heavy chain levels in the exosome fraction secreted from control or C9-ALS/FTD iMNs upon apilimod treatment. […] Kruskal-Wallis test for B, C. N=3 biological replicates per condition, one line per genotype. (D) Number of poly(GR)-GFP+ exosomes secreted from iMNs expressing exogenous poly(GR)-GFP upon DMSO or apilimod treatment. N=4 biological replicates. Exosomes were labeled with CFSE-red dye to enable detection by FACS. Unpaired t-test.
Blocking PIKFYVE activity induces secretory autophagy. […] Thus, secretory autophagy maintains proteostasis and prevents neuronal death in TDP-43 mouse models. PIKFYVE inhibition blocks autophagosome-lysosome fusion by […] their ratio in endosomal, lysosomal and autophagosomal membranes. One might expect this to be detrimental to ALS iMNs, which can degenerate due to misfolded protein accumulation. However, inhibition of autophagosome-lysosome fusion using PIKFYVE inhibition or bafilomycin can activate secretory autophagy to jettison misfolded proteins from cells. […] To test this hypothesis, exosomal release in human iMNs upon PIKFYVE inhibition was examined. […] Thus, PIKFYVE inhibition induces the secretion of TDP-43 and C9ORF72 DPRs from iMNs.
Determining if PIKFYVE suppression rescues neurodegeneration through secretory autophagy. […] ASOs were designed targeting […]. It was confirmed that the ASOs suppressed RAB27A expression in iMNs.

The target of data set [1] is T1, Neutral Sphingomyelinase 2 (Mus musculus, UniProt Q9JJY3).
T1 construct: In mice overexpressing TDP-43, neurons secrete exosomes containing phospho-TDP-43; host or cells: neurons of TDP-43-overexpressing mice (endogenous enzyme, in vivo)
T1 sequence (Q9JJY3 1-655): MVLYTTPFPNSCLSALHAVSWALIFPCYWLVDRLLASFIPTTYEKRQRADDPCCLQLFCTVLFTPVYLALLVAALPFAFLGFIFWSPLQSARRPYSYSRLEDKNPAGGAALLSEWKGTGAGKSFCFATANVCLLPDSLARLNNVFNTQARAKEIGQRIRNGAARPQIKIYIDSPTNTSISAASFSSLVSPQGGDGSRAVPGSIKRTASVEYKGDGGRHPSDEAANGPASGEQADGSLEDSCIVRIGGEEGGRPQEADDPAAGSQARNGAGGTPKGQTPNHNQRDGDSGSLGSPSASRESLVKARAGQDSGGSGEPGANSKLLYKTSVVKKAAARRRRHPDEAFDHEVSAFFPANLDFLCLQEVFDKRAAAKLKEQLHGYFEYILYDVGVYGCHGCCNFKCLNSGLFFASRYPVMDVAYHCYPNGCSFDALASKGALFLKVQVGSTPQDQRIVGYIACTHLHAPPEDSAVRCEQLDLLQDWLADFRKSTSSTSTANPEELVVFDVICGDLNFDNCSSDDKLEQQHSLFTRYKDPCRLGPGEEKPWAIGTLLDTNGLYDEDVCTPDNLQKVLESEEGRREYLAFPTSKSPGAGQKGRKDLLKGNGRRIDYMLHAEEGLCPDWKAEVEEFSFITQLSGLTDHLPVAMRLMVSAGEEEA
As to conditions: mice overexpressing TDP-43; cited from earlier work.

For another data set, the system named is sporadic ALS iMNs. In words: Survival of sporadic ALS iMNs.
Data set [2] has as its system C9ORF72 dipeptide repeat proteins. The data set can be described thus: DPR levels in C9ORF72-BAC mice. It counts as in vivo. Conditions: ASO injected into hippocampus, 7 days (12 days in FIG. 8-10). The procedure: DRP aggregates (Poly(GR) red) accumulate in the cells (white outline) of C9-BAC mice.
(§2) (A) Mass spectrometry analysis of Optineurin (OPTN) levels in the cerebrospinal fluide (CSF) of mice 2 hours after direct intracerebroventral injection of a vehicle control or apilimod. n=3 mice per group. The ratio of Optineurin in the CSF of apilimod:vehicle-injected mice is shown. (B) Poly(GR)+ DPR punctae in wild-type or C9ORF72 mice treated with intracerebroventricular injection of apilimod for 48 hours. Mean+/−s.e.m. Data points are individual neurons taken across 3 mice per group. One-way ANOVA. […] Unpaired t-test. (D) Pikfyve qRT-PCR of whole brain. n=3 mice per group at postnatal day 7. Unpaired t-test. (E) Gait impairment scoring in wild-type (WT) and TDP-43 homozygous mice treated with a negative control (NC) ASO or Pikfyve ASO at postnatal day 1. Mean+/−s.e.m. Unpaired t-test at each time point between the negative control and Pikfyve ASO conditions for TDP-43 mice. A score of 0 indicates no phenotype and 4 indicates the most severe phenotype. (F) Vehicle or GW4869 were delivered by intraperitoneal injection every 48 h starting from day 6 in negative control and Pikfyve ASO-treated mice. Mean+/−s.e.m. One-way ANOVA at each time point between the four conditions. *p<0.05, **p<0.01, ***p<0.001, ****p<0.0001.
PIKFYVE inhibition rescues neurodegeneration in vivo. […] Since TARDBP overexpressing mice show motor deficits and neurodegeneration, we used TARDBP mice to test the efficacy of Pikfyve suppression.
(§3) Determining whether PIKfyve-targeting ASOs can reverse ALS disease progression in vivo. To determine if PIKfyve-targeting ASOs can reverse ALS disease processes in vivo, can PIKfyve ASOs lower levels of C9ORF72 dipeptide repeat proteins in mice. Dipeptide repeat proteins are generated from the C9ORF72 repeat expansion by repeat-associated non-AUG-dependent translation and are neurotoxic.
(§4) To determine if ASO-mediated Pikfyve suppression lowers C9ORF72 poly(GR) levels in mice, Pikfyve ASOs were injected into the hippocampus of adult C9ORF72-BAC mice, which harbor a C9ORF72 repeat expanded transgene and accumulate poly(GR)+ aggregates in hippocampal neurons.

Data set [3] concerns Pikfyve. In words: Pikfyve qRT-PCR of whole brain after intracerebroventricular ASO. It counts as in vivo, mice. As to conditions: intracerebroventricular ASO injection at P0/P1, brain at P7. The procedure: as §2
(A) Gait impairment, (B) Kyphosis, and (C) Tremor scoring in wild-type (WT) and TDP-43 homozygous mice treated with a negative control (NC) ASO or Pikfyve ASO at P0. […]
A general note: Quantitative PCR measures a nucleic acid by following its amplification.

For data set [4], the system named is Pikfyve. In words: Pikfyve expression in hippocampus after ASO injection. It is filed as in vivo, mice. As to conditions: direct ASO injection into hippocampus, 7 days.
Excerpt: as §3, §4

The next data set has as its system TDP-43 mutant mice. The data set can be described thus: TDP-43 pathology, neurodegeneration and survival in TDP-43 mice. It counts as in vivo. The source says: (A, B) Images (A) and quantification (B) of phosphorylated TDP-43 (pTDP43)+ punctae in spinal motor neurons of day 21 wild-type or TDP-43 mutant mice treated with a negative control (NC ASO) or Pikfyve ASO. Each data point represents one mouse, mean+/−s.e.m., one-way ANOVA. In (A), each arrow marks a pTDP-43+ puncta. […] (C, D) Images (C) and quantification (D) of nuclear and cytoplasmic TDP-43 intensity in spinal motor neurons of day 21 wild-type or TDP-43 mutant mice treated with a negative control (NC ASO) or Pikfyve ASO. Each data point represents one mouse, mean+/−s.e.m., one-way ANOVA. […] (E, F) Images (E) and quantification (F) of the average number of Neurotrace (Nissl)+ spinal motor neurons per ventral horn per mouse. Each data point represents one mouse, mean, one-way ANOVA. In (E), orange dotted lines outline the ventral horn area quantified and white dotted lines outline the spinal cord. (G) Survival of TDP-43 mutant mice treated with a negative control (NC ASO) or Pikfyve ASO. Log-rank test. *p<0.05, **p<0.01, ***p<0.001, ****p<0.0001.

“Also recorded” adds a separate entry of the source.

Excerpt for TARDBP mice: (A) Gait impairment, (B) Kyphosis, and (C) Tremor scoring in wild-type (WT) and TDP-43 homozygous mice treated with a negative control (NC) ASO or Pikfyve ASO at P0. Fore each assay, a score of 0 indicates no phenotype and 4 indicates the most severe phenotype.
To determine if ASO-mediated PIKFYVE suppression can rescue neurodegeneration in mouse models of ALS, two mouse models—a C9ORF72 model based on adeno-associated virus (AAV)-mediated overexpression of poly(GR) and a TDP-43 mouse mode were established. Both models develop neurodegeneration, motor impairment, and paralysis. […]
Excerpt for sporadic ALS iMNs: (A) Survival of control (CTRL) and C9ORF72 ALS/FTD patient (C9-ALS) iMNs with a 12-hour pulse treatment of excess glutamate shown for each individual line separately. iMNs quantified from 3 independent iMN conversions per line. (B-D) Immunofluorescence analysis of total TDP-43 (B) and quantification of the ratio of nuclear to cytoplasmic TDP-43 in control, C9-ALS (C), or sporadic ALS (D) iMNs. MNs from 2 controls and 2 C9-ALS patients (C) or 4 sporadic ALS patients (D) were quantified. n=30 (controls), 30 (C9-ALS/FTD), or 36 (sporadic) iMNs per line per condition from 2 biologically independent iMN conversions of 2 control, 2 C9-ALS/FTD, or 4 sporadic ALS lines were quantified. Each gray circle represents a single iMN. Median±interquartile range. Unpaired Mann-Whitney test. Scale bars: 5 μm. Dotted lines outline the nucleus and cell body. (E) Survival of control and sporadic iMNs with glutamate treatment. iMNs quantified from 3 independent iMN conversions per line. For iMN survival experiments, significance was measured by 2-sided log-rank test using the entire survival time course.
(B) Survival of C9-ALS/FTD iMNs with DMSO or apilimod. (C) Survival of sporadic ALS induced motor neurons (iMNs) with DMSO or apilimod. (D) Survival of C9-ALS/FTD iMNs with a scrambled ASO or PIKFYVE ASOs, 100 iMNs per group. […] Unpaired t-test. iMN survival experiments analyzed by log-rank test. […]

In the case of `O=C(/C=C/c1ccc(/C=C/C(=O)Nc2ccc(C3=NCCN3)cc2)cc1)Nc1ccc(C2=NCCN2)cc1` [GW4869], the “apilimod rescue of C9ORF72 iN survival in presence of GW4869” value with C9ORF72 FTD iNs is “blocked apilimod's ability to rescue”. Also, the “apilimod-induced release of exosomes from C9ORF72 iNs with GW4869” value in the data set with C9-FTD iNs is “impaired apilimod-induced release of exosomes”. Further, the “motor rescue by PIKFYVE ASOs in presence of GW4869” value with TARDBP mice (GW4869 intraperitoneal every 48 h from day 6) is “blocked motor rescue by PIKFYVE ASOs”. Moreover, the “apilimod-induced release of exosomes containing TSG101 and TDP-43 from ALS iMNs with GW4869” value in the data set with C9-ALS/FTD iMNs is “blocked apilimod-induced release of exosomes”. For the same molecule, in data set [1], the TDP-43 mouse survival entry was “decreased TDP-43 mouse survival”, the neurodegeneration entry is given as “accelerated neurodegeneration” and the “neuronal cytoplasmic TDP-43 aggregates” value is recorded as “increased neuronal accumulation of cytoplasmic TDP-43 aggregates”.

`Nc1ccc(C(=O)Nc2cccc(-c3nc(N4CCOCC4)c4oc5ncccc5c4n3)c2)cn1` [YM201636]: in the data set with sporadic ALS iMNs, the “sporadic ALS iMN survival” value is “rescued C9ORF72 and sporadic ALS”.

Take “GGTGCATGCTCGGAGGTCTC (chemistry not given here) [Pikfyve ASO, mouse Pikfyve ASO gapmer for in vivo experiments, 5-10-5 2′-MOE, phosphorothioate]”: the entries for the “DPR / poly(GR)+ aggregates in hippocampus of C9ORF72-BAC mice” value in data set [2], in data set [2] (listed as PIKfyve ASO) and in [2] (listed as Pikfyve-suppressing ASO) were “significantly reduced; also recorded: significantly less DRP aggregates”, “significantly lowered” and “also lowered DPRs”, respectively. Moreover, the “Pikfyve mRNA levels (whole brain qRT-PCR)” value in the data set on Pikfyve [3] was “reduced Pikfyve mRNA levels”; in the data set with Pikfyve [3] (listed as Pikfyve-targeting ASO), “significantly decreased Pikfyve expression”. The “Pikfyve expression in hippocampus” value with Pikfyve [4] was “significantly reduced”; in the data set with Pikfyve [4] (listed as PIKfyve ASO) it was “significantly lowered”. Also, the “motor deficits in TARDBP mice” value in the data set on TARDBP mice (intracerebroventricular injection of Pikfyve ASO) is reported as “rescued motor deficits”. The “survival of TDP-43 mutant mice” value in the data set on TDP-43 mutant mice (NC ASO vs Pikfyve ASO) was “rescues”. Moreover, the “neurodegeneration in TDP-43 mice” value with TDP-43 mutant mice (Nissl+ spinal motor neurons per ventral horn) is “rescues”. Also, the “TDP-43 pathology in TDP-43 mice” value with TDP-43 mutant mice (spinal motor neurons, day 21, NC ASO vs Pikfyve ASO) is recorded as “rescues”.

Source of the values: patent US20230098111A1, “COMPOSITIONS AND METHODS TO TREAT NEUROLOGICAL DISEASES” (University of Southern California, priority 2020, published 2023).
